# Patent US20250089717A1, “FUNGICIDAL HALOMETHYL KETONES, HYDRATES AND ENOL ETHERS AND THEIR MIXTURES” (FMC CORPORATION, priority 2023, published 2025)
# Tested on: Phakopsora pachyrhizi
# Experiment: Test A: preventive spray on soybean seedlings, Asian soybean rust, visual disease rating
# Type: in vivo
# Details: rate 10 ppm
# From the text: General protocol for preparing test suspensions for Test A: the test compounds were first dissolved in acetone in an amount equal to 3% of the final volume and then suspended at the desired concentration (in ppm) in acetone and purified water (50/50 mix by volume) containing 250 ppm of the surfactant PEG400 (polyhydric alcohol esters). The resulting test suspensions were then used in Test A.
# The test solution was sprayed to the point of run-off on soybean seedlings. The following day the seedlings were inoculated with a spore suspension of Phakopsora pachyrhizi (the causal agent of Asian soybean rust) and incubated in a saturated atmosphere at 22° C. for 24 h and then moved to a growth chamber at 22° C. for 8 days, after which time visual disease ratings were made.
# A rating of 100 indicates 100% disease control and a rating of 0 indicates no disease control (relative to the controls).
row,Compound,"Test A rating (100 = 100% disease control, 0 = no disease control relative to the controls) [%]"
1,CCO/C(=C\Oc1ccc(Cn2cc(COC(=O)CCC(=O)OC)cn2)cc1)C(F)(F)F [compound 26],100
2,CCO/C(=C\Oc1ccc(Cn2cc(COC(=O)C3CCCC3)cn2)cc1)C(F)(F)F [compound 29],100
3,CCO/C(=C\Oc1ccc(Cn2cc(C(=O)NOCC=CCl)cn2)cc1)C(F)(F)F [compound 32],100
4,CCO/C(=C\Oc1ccc(Cn2cc(C(=NOCC3CC3)OC)cn2)cc1)C(F)(F)F [compound 34],97
5,CCO/C(=C\Oc1ccc(Cn2cc(COC(=O)C(CC)CC)cn2)cc1)C(F)(F)F [compound 36],100
6,CCO/C(=C\Oc1ccc(Cn2cc(C(=O)N(C)OCC3CC3)cn2)cc1)C(F)(F)F [compound 39],100
7,C=CCON(CC)C(=O)c1cnn(Cc2ccc(O/C=C(\OCC)C(F)(F)F)cc2)c1 [compound 41],94
8,C=CCON=C(OCCCC)c1cnn(Cc2ccc(O/C=C(\OCC)C(F)(F)F)cc2)c1 [compound 42],96
9,C=CCON(CCCC)C(=O)c1cnn(Cc2ccc(O/C=C(\OCC)C(F)(F)F)cc2)c1 [compound 43],87
10,C#CCC(=O)OCc1cnn(Cc2ccc(O/C=C(\OCC)C(F)(F)F)cc2)c1 [compound 44],100
11,CCO/C(=C\Oc1ccc(Cn2cc(COC(=O)CC(C)(C)C)cn2)cc1)C(F)(F)F [compound 49],99
12,CCO/C(=C\Oc1ccc(Cn2cc(COC(=O)C3CC3)cn2)cc1)C(F)(F)F [compound 51],100
13,CCOC(=O)OCc1cnn(Cc2ccc(O/C=C(\OCC)C(F)(F)F)cc2)c1 [compound 53],100
14,CCO/C(=C\Oc1ccc(Cn2cc(C(N)=NO)cn2)cc1)C(F)(F)F [compound 56],84
15,CCO/C(=C\Oc1ccc(Cn2cc(COCC3(C)CC3)cn2)cc1)C(F)(F)F [compound 57],100
16,CCO/C(=C\Oc1ccc(Cn2cc(COC3CCC3)cn2)cc1)C(F)(F)F [compound 59],100

row,Compound,"Test A rating (100 = 100% disease control, 0 = no disease control relative to the controls) [%]"
1,C=CCONC(=O)c1cnn(CCCc2ccc(O/C=C(\OCC)C(F)(F)F)cc2)c1 [compound 60],96
2,C=CCON=C(OCC)c1cnn(CCc2ccc(O/C=C(\OCC)C(F)(F)F)cc2)c1 [compound 61],100
3,C=CCONC(=O)c1cnn(CCc2ccc(O/C=C(\OCC)C(F)(F)F)cc2)c1 [compound 62],100
4,CCO/C(=C\Oc1ccc(Cn2cc(COCC3CCCC3)cn2)cc1)C(F)(F)F [compound 63],100
5,CCO/C(=C\Oc1ccc(Cn2cc(COCC3CC3)cn2)cc1)C(F)(F)F [compound 64],100
6,C#CCOCc1cnn(Cc2ccc(O/C=C(\OCC)C(F)(F)F)cc2)c1 [compound 65],100
7,C=CCOCc1cnn(Cc2ccc(O/C=C(\OCC)C(F)(F)F)cc2)c1 [compound 66],100
8,CCO/C(=C\Oc1ccc(Cn2cc(C(=O)NOCCO)cn2)cc1)C(F)(F)F [compound 67],100
9,CCO/C(=C\Oc1ccc(Cn2cccc(C(=O)NOCC#N)c2=O)cc1)C(F)(F)F [compound 98],99
10,C#CCON(C)C(=O)c1cccn(Cc2ccc(O/C=C(\OCC)C(F)(F)F)cc2)c1=O [compound 99],92
11,C#CCONC(=O)c1cccn(Cc2ccc(O/C=C(\OCC)C(F)(F)F)cc2)c1=O [compound 100],98
12,CCO/C(=C\Oc1ccc(Cn2cccc(C(=O)N(C)OCCOC)c2=O)cc1)C(F)(F)F [compound 101],94
13,CCO/C(=C\Oc1ccc(Cn2cccc(C(=O)N(C)OCC3CC3)c2=O)cc1)C(F)(F)F [compound 102],99
14,CCO/C(=C\Oc1ccc(Cn2cccc(C(=O)NOCCOC)c2=O)cc1)C(F)(F)F [compound 103],97
15,CCO/C(=C\Oc1ccc(Cn2cccc(C(=O)NOCC3CC3)c2=O)cc1)C(F)(F)F [compound 104],100

# Same assay, conditions: rate 10 ppm, read-out: Test A rating (100 = 100% disease control, 0 = no disease control relative to the controls)
row,Compound,pest or weed control at 10 ppm [%]
1,C=CCO/N=C(/OCC)c1ccn(Cc2ccc(O/C=C(\OCC)C(F)(F)F)cc2)n1 [compound 110],99
2,C=CCONC(=O)c1ccn(Cc2ccc(O/C=C(\OCC)C(F)(F)F)cc2)n1 [compound 111],100
3,CCO/C(=C\Oc1ccc(Cc2nc(C(=O)NOCCOC)cs2)cc1)C(F)(F)F [compound 112],100
4,C=CCO/N=C(/OCC)c1cnn(Cc2cccc(O/C=C(\OCC)C(F)(F)F)c2)c1 [compound 113],87
5,C=CCONC(=O)c1cnn(Cc2cccc(O/C=C(\OCC)C(F)(F)F)c2)c1 [compound 114],100
6,C=CCONC(=O)c1ccn(Cc2ccc(O/C=C(\OCC)C(F)(F)F)cc2)c1 [compound 115],96
7,CCO/C(=C\Oc1ccc(Cc2nc(C(=O)NOCC3CC3)cs2)cc1)C(F)(F)F [compound 116],100
8,C=CCONC(=O)c1csc(Cc2ccc(O/C=C(\OCC)C(F)(F)F)cc2)n1 [compound 117],100
9,C=CCO/N=C(\OCC)c1cc(Cc2ccc(O/C=C(\OCC)C(F)(F)F)cc2)ccn1 [compound 118],100
10,CCO/C(=C\Oc1ccc(Cc2cccc(C(=O)N(C)OCc3ccccc3)n2)cc1)C(F)(F)F [compound 122],100
11,CCO/C(=C\Oc1ccc(Cc2cccc(C(=O)NOCc3ccccc3)n2)cc1)C(F)(F)F [compound 126],99
12,C=CCONC(=O)c1cc(Cc2ccc(OCC3(C(F)(F)F)OCCO3)cc2)ccn1 [compound 129],98
13,C=CCON(C)C(=O)c1cc(Cc2ccc(OCC3(C(F)(F)F)OCCO3)cc2)ccn1 [compound 130],99
14,C#CCO/N=C(\OC)c1cccc(Cc2ccc(O/C=C(\OCC)C(F)(F)F)cc2)n1 [compound 134],99
15,C=CCON(C)C(=O)c1cc(Cc2ccc(O/C=C(\OCC)C(F)(F)F)cc2)ccn1 [compound 135],100

# Same assay, conditions: rate 250 ppm, read-out: Test A rating (100 = 100% disease control, 0 = no disease control relative to the controls)
row,Compound,pest or weed control at 250 ppm [%]
1,C=CCON(CC)C(=O)c1cccc(Cc2ccc(O/C=C(\OCC)C(F)(F)F)cc2)c1 [compound 128],100
